In brackets after ≈: the same amount, converted by molar mass.
system: Human alphaherpesvirus 2; assay: Antiviral activity against Herpes simplex virus 2 assessed as inhibition of virus-induced cytopathic effect after 72 hrs by two-fold dilution method; format: functional; details: Human alphaherpesvirus 2, 72 h

SMILES	MIC [µg/mL]
CCC(=O)C(CCCCCCOc1ccccc1F)C(=O)CC	12 (≈ 37.2 µM)
CCC(=O)C(CCCCCCOc1ccc(S(N)(=O)=O)cc1)C(=O)CC	12 (≈ 31.3 µM)
CCC(=O)C(CCCCCCOc1ccc(OCc2ccccc2)cc1Cl)C(=O)CC	3 (≈ 6.74 µM)
CCC(=O)C(CCCCCCOc1ccc(Br)cc1Cl)C(=O)CC	3 (≈ 7.18 µM)
COc1ccc(OCCCCCCC(C(C)=O)C(C)=O)c(Cl)c1	12 (≈ 35.2 µM)
CCC(=O)C(CCCCCCOc1ccccc1)C(=O)CC	1.5 (≈ 4.93 µM)
CCC(=O)C(CCCCCCCOc1ccc(OC)cc1Cl)C(=O)CC	6 (≈ 15.7 µM)
CCC(=O)C(CCCCCCOc1cccc(I)c1)C(=O)CC	6 (≈ 13.9 µM)
CCC(=O)C(CCCCCCOc1ccccc1C(F)(F)F)C(=O)CC	6 (≈ 16.1 µM)
CCC(=O)C(CCCCCCOc1c(I)cc(I)cc1I)C(=O)CC	6 (≈ 8.8 µM)
CCC(=O)C(CCCCCCOc1ccc(OC(=O)CCCN2CCOCC2)cc1)C(=O)CC	12 (≈ 25.2 µM)
CCC(=O)C(CCCCCCOc1cc(Cl)c(OC)cc1Cl)C(=O)CC	6 (≈ 14.9 µM)
CCC(=O)C(CCCCCCCCCOc1ccc(OC)cc1Cl)C(=O)CC	12 (≈ 29.2 µM)
CCC(=O)C(CCCCCCOc1c(F)c(F)c(F)c(F)c1F)C(=O)CC	12 (≈ 30.4 µM)
CCC(=O)C(CCCCCCOc1ccccc1Cl)C(=O)CC	6 (≈ 17.7 µM)
CCC(=O)C(CCCCCCCCOc1ccc(OC)cc1Cl)C(=O)CC	3 (≈ 7.56 µM)

SMILES	MIC [µg/mL]
CCC(=O)C(CCCCCCOc1cc(Cl)cc(OC)c1)C(=O)CC	12 (≈ 32.5 µM)
CCC(=O)C(CCCCCCOc1ccc(C(C)=O)cc1OC)C(=O)CC	12 (≈ 31.9 µM)
CCC(=O)C(CCCCCCOc1ccc(O)cc1)C(=O)CC	3 (≈ 9.36 µM)
CCC(=O)C(CCCCCCOc1ccc(I)cc1)C(=O)CC	6 (≈ 13.9 µM)
CCC(=O)C(CCCCCCOc1ccc(Cl)cc1Cl)C(=O)CC	3 (≈ 8.04 µM)
CCC(=O)C(CCCCCCOc1ccc(OC)cc1[N+](=O)[O-])C(=O)CC	6 (≈ 15.8 µM)
CCC(=O)C(CCCCCCCCCCOc1ccc(OC)cc1Cl)C(=O)CC	6 (≈ 14.1 µM)
CCC(=O)C(CCCCCCOc1ccc(F)cc1Cl)C(=O)CC	6 (≈ 16.8 µM)
CCC(=O)C(CCCCCCOc1ccc(OCCO)cc1Cl)C(=O)CC	1.5 (≈ 3.76 µM)
CCC(=O)C(CCCCCCOc1ccccc1[N+](=O)[O-])C(=O)CC	6 (≈ 17.2 µM)
CCC(=O)C(CCOCCOc1ccc(OC)cc1Cl)C(=O)CC	12 (≈ 33.6 µM)
CCC(=O)C(CCCCCCOc1ccc(OCc2ccccc2)cc1)C(=O)CC	1.5 (≈ 3.65 µM)
CCC(=O)C(CCCCCCOc1ccc(CC)cc1)C(=O)CC	12 (≈ 36.1 µM)
CCC(=O)C(CCCCCCOc1ccc(Br)cc1)C(=O)CC	6 (≈ 15.7 µM)
CCOC(=O)c1ccc(OCCCCCCC(C(=O)CC)C(=O)CC)cc1	3 (≈ 7.97 µM)
CCC(=O)C(CCCCCCOc1ccc(F)cc1)C(=O)CC	3 (≈ 9.3 µM)

system: Equine rhinovirus; assay: Antiviral activity against Equine rhinovirus assessed as inhibition of virus-induced cytopathic effect after 48 hrs by two-fold dilution method; details: not given

SMILES	MIC [µg/mL]
CCC(=O)C(CCCCCCOc1ccccc1F)C(=O)CC	3 (≈ 9.3 µM)
CCC(=O)C(CCCCCCOc1ccc(OCc2ccccc2)cc1Cl)C(=O)CC	3 (≈ 6.74 µM)
CCC(=O)C(CCCCCCOc1ccc(Br)cc1Cl)C(=O)CC	3 (≈ 7.18 µM)
CCC(=O)C(CCCCCCOc1ccccc1)C(=O)CC	6 (≈ 19.7 µM)
CCC(=O)C(CCCCCCCOc1ccc(OC)cc1Cl)C(=O)CC	3 (≈ 7.83 µM)
CCC(=O)C(CCCCCCOc1cccc(I)c1)C(=O)CC	6 (≈ 13.9 µM)
CCC(=O)C(CCCCCCOc1ccccc1C(F)(F)F)C(=O)CC	6 (≈ 16.1 µM)
CCC(=O)C(CCCCCCOc1c(I)cc(I)cc1I)C(=O)CC	12 (≈ 17.6 µM)
CCC(=O)C(CCCCCCOc1ccc(OC(=O)CCCN2CCOCC2)cc1)C(=O)CC	12 (≈ 25.2 µM)
CCC(=O)C(CCCCCCOc1cc(Cl)c(OC)cc1Cl)C(=O)CC	3 (≈ 7.44 µM)
CCC(=O)C(CCCCCCCCCOc1ccc(OC)cc1Cl)C(=O)CC	6 (≈ 14.6 µM)
CCC(=O)C(CCCCCCOc1ccccc1Cl)C(=O)CC	3 (≈ 8.85 µM)
CCC(=O)C(CCCCCCCCOc1ccc(OC)cc1Cl)C(=O)CC	3 (≈ 7.56 µM)
CCC(=O)C(CCCCCCOc1cc(Cl)cc(OC)c1)C(=O)CC	6 (≈ 16.3 µM)
CCC(=O)C(CCCCCCOc1ccc(O)cc1)C(=O)CC	12 (≈ 37.4 µM)
CCC(=O)C(CCCCCCOc1ccc(I)cc1)C(=O)CC	3 (≈ 6.97 µM)
CCC(=O)C(CCCCCCOc1ccc(OC)cc1[N+](=O)[O-])C(=O)CC	3 (≈ 7.91 µM)
CCC(=O)C(CCCCCCCCCCOc1ccc(OC)cc1Cl)C(=O)CC	12 (≈ 28.2 µM)
CCC(=O)C(CCCCCCOc1ccc(F)cc1Cl)C(=O)CC	3 (≈ 8.41 µM)
CCC(=O)C(CCCCCCOc1ccc(OCCO)cc1Cl)C(=O)CC	3 (≈ 7.52 µM)
CCC(=O)C(CCCCCCOc1ccccc1[N+](=O)[O-])C(=O)CC	6 (≈ 17.2 µM)
CCC(=O)C(CCOCCOc1ccc(OC)cc1Cl)C(=O)CC	25 (≈ 70.1 µM)
CCC(=O)C(CCCCCCOc1ccc(OCc2ccccc2)cc1)C(=O)CC	1.5 (≈ 3.65 µM)
CCC(=O)C(CCCCCCOc1ccc(CC)cc1)C(=O)CC	6 (≈ 18 µM)
CCC(=O)C(CCCCCCOc1ccc(Br)cc1)C(=O)CC	3 (≈ 7.83 µM)
CCOC(=O)c1ccc(OCCCCCCC(C(=O)CC)C(=O)CC)cc1	6 (≈ 15.9 µM)
CCC(=O)C(CCCCCCOc1ccc(F)cc1)C(=O)CC	3 (≈ 9.3 µM)

Reference: ChEMBL document CHEMBL3244039, “Antiviral activity of some beta-diketones. 2. Aryloxy alkyl diketones. In vitro activity against both RNA and DNA viruses” (1977)
